The IC50 is the concentration at which inhibition is half-maximal.

Consider one compound from BindingDB's records for doi:10.1038/nchembio.1603 (Glaxosmithkline, 2014).

The target of the assay is Fatty acid synthase (Homo sapiens, UniProt P49327). The assay can be described thus: FAS Assay No1. How it is done:
Inhibition of FAS by benzimidazole was measured by an endpoint assay for NADPH consumption.

Chain of Fatty acid synthase (P49327 whole entry): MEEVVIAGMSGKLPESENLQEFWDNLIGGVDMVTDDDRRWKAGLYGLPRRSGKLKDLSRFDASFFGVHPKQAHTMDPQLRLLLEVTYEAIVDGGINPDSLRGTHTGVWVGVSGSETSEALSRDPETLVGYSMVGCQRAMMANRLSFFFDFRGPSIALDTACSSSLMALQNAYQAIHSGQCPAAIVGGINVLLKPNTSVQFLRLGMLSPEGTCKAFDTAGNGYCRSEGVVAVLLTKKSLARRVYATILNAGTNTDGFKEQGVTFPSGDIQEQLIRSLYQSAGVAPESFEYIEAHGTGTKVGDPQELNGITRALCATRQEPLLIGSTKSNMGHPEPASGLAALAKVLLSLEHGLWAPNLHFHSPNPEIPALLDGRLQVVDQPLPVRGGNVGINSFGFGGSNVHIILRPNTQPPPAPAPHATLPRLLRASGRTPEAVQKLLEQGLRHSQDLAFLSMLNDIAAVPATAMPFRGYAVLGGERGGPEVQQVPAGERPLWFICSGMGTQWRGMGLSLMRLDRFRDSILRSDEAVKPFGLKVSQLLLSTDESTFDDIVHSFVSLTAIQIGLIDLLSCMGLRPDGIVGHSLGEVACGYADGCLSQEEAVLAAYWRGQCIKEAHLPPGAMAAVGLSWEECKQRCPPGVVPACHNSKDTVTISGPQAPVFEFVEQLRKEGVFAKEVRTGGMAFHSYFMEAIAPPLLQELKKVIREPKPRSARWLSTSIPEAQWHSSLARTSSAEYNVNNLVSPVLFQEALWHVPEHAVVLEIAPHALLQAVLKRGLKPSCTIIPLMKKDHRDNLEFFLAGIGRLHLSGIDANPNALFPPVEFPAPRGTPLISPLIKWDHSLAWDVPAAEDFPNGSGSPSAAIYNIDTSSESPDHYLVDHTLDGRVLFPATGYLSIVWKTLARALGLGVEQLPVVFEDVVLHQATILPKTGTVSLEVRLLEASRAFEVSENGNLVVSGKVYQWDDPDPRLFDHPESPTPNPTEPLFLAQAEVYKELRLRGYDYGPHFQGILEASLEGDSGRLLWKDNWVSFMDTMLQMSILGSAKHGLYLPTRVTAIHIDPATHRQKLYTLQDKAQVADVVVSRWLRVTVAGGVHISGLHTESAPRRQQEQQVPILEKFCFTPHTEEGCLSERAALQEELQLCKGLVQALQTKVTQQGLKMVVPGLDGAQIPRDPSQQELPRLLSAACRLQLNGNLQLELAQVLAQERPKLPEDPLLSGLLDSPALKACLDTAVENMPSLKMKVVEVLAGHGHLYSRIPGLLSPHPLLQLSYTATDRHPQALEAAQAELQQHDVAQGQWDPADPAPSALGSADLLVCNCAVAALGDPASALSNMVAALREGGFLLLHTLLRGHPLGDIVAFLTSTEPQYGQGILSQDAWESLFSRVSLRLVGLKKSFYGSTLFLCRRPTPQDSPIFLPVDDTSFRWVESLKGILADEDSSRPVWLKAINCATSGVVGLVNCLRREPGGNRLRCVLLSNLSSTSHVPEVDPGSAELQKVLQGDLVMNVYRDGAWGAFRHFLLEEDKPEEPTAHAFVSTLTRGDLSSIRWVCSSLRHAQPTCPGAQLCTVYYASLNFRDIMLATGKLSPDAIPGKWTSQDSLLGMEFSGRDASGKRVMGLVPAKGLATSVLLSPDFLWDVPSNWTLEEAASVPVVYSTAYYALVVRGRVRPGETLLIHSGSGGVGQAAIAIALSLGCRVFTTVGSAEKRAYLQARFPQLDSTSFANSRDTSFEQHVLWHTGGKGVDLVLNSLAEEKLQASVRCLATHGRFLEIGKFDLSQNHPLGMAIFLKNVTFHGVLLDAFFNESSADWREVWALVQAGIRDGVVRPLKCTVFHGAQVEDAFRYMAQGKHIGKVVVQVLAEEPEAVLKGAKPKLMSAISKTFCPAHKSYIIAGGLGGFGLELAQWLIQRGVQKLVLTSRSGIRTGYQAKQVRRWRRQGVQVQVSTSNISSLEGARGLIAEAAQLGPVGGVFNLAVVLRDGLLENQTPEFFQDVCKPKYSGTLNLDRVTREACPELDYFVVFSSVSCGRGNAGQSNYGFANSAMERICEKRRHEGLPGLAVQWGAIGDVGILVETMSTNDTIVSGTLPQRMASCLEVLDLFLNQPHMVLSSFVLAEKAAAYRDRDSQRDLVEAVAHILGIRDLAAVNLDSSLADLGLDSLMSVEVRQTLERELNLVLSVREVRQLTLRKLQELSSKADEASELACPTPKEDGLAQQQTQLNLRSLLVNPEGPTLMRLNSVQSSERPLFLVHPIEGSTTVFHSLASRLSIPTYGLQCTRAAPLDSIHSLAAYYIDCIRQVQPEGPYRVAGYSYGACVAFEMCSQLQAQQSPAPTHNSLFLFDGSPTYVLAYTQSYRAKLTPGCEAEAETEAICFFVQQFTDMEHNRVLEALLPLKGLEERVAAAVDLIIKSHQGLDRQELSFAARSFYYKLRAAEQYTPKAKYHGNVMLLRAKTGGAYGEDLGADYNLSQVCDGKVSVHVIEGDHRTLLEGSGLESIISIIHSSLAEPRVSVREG

`CNC(=O)c1ccc2nc(-c3ccc(-c4ccccc4)cc3)n(CC3CCN(C(=O)C4CC4)C3)c2c1` (stereo unspecified) [2-([1,1'-Biphenyl]-4-yl)-1-((1-(cyclopropanecarbonyl)pyrrolidin-3-yl)methyl)-N-methyl-1H-benzo[d]imidazole-6-carboxamide] showed a concentration for half-maximal inhibition (IC50) of 1 µM.
